Laboratory results: patent US9301917B2, “Sustained-release pharmaceutical composition” (Kyoto University, priority 2010, dated 2016)
Values belong to the molecule of their own block, whether it stands above or below them.

Assays:
[1] = biological target: T1, collagen solution (KAI, pH 7, PB buffer) (Bos taurus, UniProt P02453+P02465); test: Influence of various sugars on gelation (fibrillogenesis time) of 3% collagen solution (Reference Example 3(1)); type: physicochemical; details: collagen 3% [w/v]; sugar 0.05 to 0.5 M (monosaccharide), 0.05 to 0.25 M (disaccharide), 0.05 M raffinose, 0.05, 0.125 M stachyose; without degassing
T1 construct: atelocollagen obtained by treatment with a protease such as pepsin; KAI
Description: • (1) The kind and concentration of a sugar to be added were changed, and an ability of the sugar to suppress the gelation of a collagen solution was confirmed by measuring a fibrillogenesis time.
The collagen was prepared so that the final concentration was 3% [w/v]. KAI (pH 7, PB buffer) was used as the collagen. The kinds and final concentrations of the used sugars are as described below. • (i) Monosaccharide: Glucose or Fructose
0.05, 0.125, 0.25, 0.5 M • (ii) Disaccharide: sucrose or maltose
0.05, 0.125, 0.25 M • (iii) Trisaccharide: raffinose
0.05 M • (iv) Tetrasaccharide: stachyose
It should be noted that, in this reference example, measurements were carried out without degassing.

[2] = biological target: T1, collagen solution (KAI, pH 7, PB buffer); test: Influence of maltotetraose and maltopentaose on gelation of collagen solution (Reference Example 4); type: physicochemical; details: collagen 3% [w/v]; sugar 0.05, 0.125 M
Description: The kind and concentration of a sugar to be added were changed, and an ability of the sugar to suppress the gelation of a collagen solution was confirmed by measuring a fibrillogenesis time.
The collagen was prepared so that the final concentration was 3% [w/v]. KAI (pH 7, PB buffer) was used as the collagen. The kinds and final concentrations of the used sugars are as described below. • (i) Tetrasaccharide: maltotetraose
0.05, 0.125 M • (ii) Pentasaccharide: maltopentaose

[3] = biological target: T2, collagen solution (KOKEN ATELOCOLLAGEN IMPLANT) (Bos taurus, UniProt P02453+P02465); test: Influence of sucrose, glucose and glucuronic acid on gelation of collagen solution (Reference Example 7); type: physicochemical; details: sugar 0.01 M, collagen 3% [w/v], pH 7.4, 37° C., absorbance at 400 nm
T2 construct: atelocollagen obtained by treatment with a protease such as pepsin; purchased KOKEN CO., LTD; KOKEN ATELOCOLLAGEN IMPLANT
Description: The following sugars were used as sugars to be added, and an ability of the sugar to suppress the gelation of a collagen solution was confirmed by measuring a fibrillogenesis time.
Monosaccharides: Glucose and Glucuronic Acid
(§1) Each of various sugar solutions was added to a collagen solution (pH 7.4, final concentration: 3% [w/v]) (KOKEN ATELOCOLLAGEN IMPLANT [KOKEN CO., LTD.]) so that the final concentration was 0.01 M, followed by mixing. The mixed solution was measured for its time-dependent change in absorbance at 400 nm with a spectrophotometer while being heated at 37° C.

KS collagen solution = test: Influence of tetrasaccharide on gelation of 0.4% collagen solution (Reference Example 3(2)); type: physicochemical; details: collagen 0.4% [w/v], pH 7; 0.05 M stachyose
Text: (2) The influence of a tetrasaccharide on a gelation ability was confirmed in the same manner as in the above-mentioned method (1) except that: the concentration of the collagen was changed to 0.4% [w/v]; and KS collagen (pH 3) adjusted to pH 7 with a neutralization liquid (7% [w/v] Na2HPO4, 0.9% [w/v] NaCl) was used as the collagen solution. 0.05 M stachyose was used as the tetrasaccharide in the same manner as in the method (1).

[4] = biological target: T2, collagen solution (KOKEN ATELOCOLLAGEN IMPLANT); test: Spectroscopic evaluation of influence of sugar on gelation ability of collagen solution (Reference Example 1); type: physicochemical; details: sucrose 0.01 or 0.25 M in collagen 3% [w/v], pH 7.4, 37° C., absorbance at 400 nm
Description: as §1, with “Specifically, a sucrose solution” for “Each of various sugar solutions”, “(product name: KOKEN” for “(KOKEN”, “IMPLANT)” for “IMPLANT [KOKEN CO., LTD.])”, “0, 0.01, or 0.25” for “0.01”

Type I atelocollagen = test: Spectroscopic evaluation of influence of sugar on gelation of various collagen solutions (Reference Example 2); type: physicochemical, bovine, porcine; details: 0.25 M sucrose, 1×PBS, 37° C., absorbance at 400 nm, 3 hours
Description: (§2) The influences of a sugar on the gelation abilities (fibrillogenic abilities) of various collagen solutions were investigated.
First, various collagens were each diluted to 0.2% [w/v] with 1 mM HCl. The various collagens used were as follows. • Type I atelocollagen (3.5% KAI: bovine, Lot. 1-107, pH 7) • Type I atelocollagen (3% KAI: porcine, stock of the laboratory, pH 7) • Type II atelocollagen (CL-22, Lot. 622052, pH 3) • Type III atelocollagen (NIP, 0.3% PSC-3-100-20, Lot. BSP310G001, 5 mM acetic acid) • Type I native collagen (1% 1-AC, Lot. 6002173, pH 3) • Shark atelocollagen (produced in the laboratory, powder, stored at −30° C.) […]
(§3) 100 μl of each of the prepared samples were added to a 96-well microplate and measured for its time-dependent change in absorbance at 400 nm (measurement interval: 30 seconds, measurement time: 3 hours) with an optical absorption microplate reader (TECAN, SUNRISE Thermo RC-R) while heated at 37° C. An average of the measured values (n=3) at the respective times was calculated.

Shark atelocollagen = test: as above; type: physicochemical; details: 0.25 M sucrose, 1×PBS, 37° C., absorbance at 400 nm, 3 hours
Description: as §2
(§4) First, various collagens were each diluted to 0.2% [w/v] with 1 mM HCl. The various collagens used were as follows. • Type I atelocollagen (3.5% KAI: bovine, Lot. 1-107, pH 7) • Type I atelocollagen (3% KAI: porcine, stock of the laboratory, pH 7) • Type II atelocollagen (CL-22, Lot. 622052, pH 3) • Type III atelocollagen (NIP, 0.3% PSC-3-100-20, Lot. BSP310G001, 5 mM acetic acid) • Type I native collagen (1% 1-AC, Lot. 6002173, pH 3) • Shark atelocollagen (produced in the laboratory, powder, stored at −30° C.)
(§5) Distilled water (OTSUKA DISTILLED WATER, Cat. 1324, Lot. 0J90N), 2.5 M sucrose (Wako Pure Chemical Industries, Ltd., Cat. 196-00015, Lot. CKM1674), 100 mg/mL lysozyme (Tokyo Chemical Industry Co., Ltd., Cat. L072), and 10×PBS (DULBECCO′PBS, Dainippon Sumitomo Pharma Co., Ltd., Cat. 28-103-05 FN, Lot. 896458) were added to each of the various collagen solutions at 0.2% [w/v] to prepare a solution having final concentrations of 0.2% [w/v] collagen/0.25 M sucrose/10 mg/mL lysozyme/1×PBS. At this time, the ingredients were added so that the collagen, distilled water, sucrose, lysozyme, and PBS were mixed in this order.
as §3

Type I native collagen = biological target: T3, Type I native collagen (Bos taurus, UniProt P02453+P02465); test: as above; type: physicochemical; details: 0.25 M sucrose, 1×PBS, 37° C., absorbance at 400 nm, 3 hours
T3 construct: Type I native collagen (1% 1-AC, Lot. 6002173, pH 3); purchased 1-AC, Lot; 6002173
Description: as §2, §4, §5, §3

Type II atelocollagen = biological target: T4, Type II atelocollagen (Bos taurus, UniProt P02459); test: as above; type: physicochemical; details: 0.25 M sucrose, 1×PBS, 37° C., absorbance at 400 nm, 3 hours
T4 construct: atelocollagen obtained by treatment with a protease such as pepsin; purchased CL-22, Lot; 622052
Description: as §2, §4, §5, §3

Type III atelocollagen = biological target: T5, Type III atelocollagen (Bos taurus, UniProt P04258); test: as above; type: physicochemical; details: 0.25 M sucrose, 1×PBS, 37° C., absorbance at 400 nm, 3 hours
T5 construct: atelocollagen obtained by treatment with a protease such as pepsin; purchased NIP PSC-3-100-20, Lot; BSP310G001
T5 sequence (P04258 15-1040 limits assumed): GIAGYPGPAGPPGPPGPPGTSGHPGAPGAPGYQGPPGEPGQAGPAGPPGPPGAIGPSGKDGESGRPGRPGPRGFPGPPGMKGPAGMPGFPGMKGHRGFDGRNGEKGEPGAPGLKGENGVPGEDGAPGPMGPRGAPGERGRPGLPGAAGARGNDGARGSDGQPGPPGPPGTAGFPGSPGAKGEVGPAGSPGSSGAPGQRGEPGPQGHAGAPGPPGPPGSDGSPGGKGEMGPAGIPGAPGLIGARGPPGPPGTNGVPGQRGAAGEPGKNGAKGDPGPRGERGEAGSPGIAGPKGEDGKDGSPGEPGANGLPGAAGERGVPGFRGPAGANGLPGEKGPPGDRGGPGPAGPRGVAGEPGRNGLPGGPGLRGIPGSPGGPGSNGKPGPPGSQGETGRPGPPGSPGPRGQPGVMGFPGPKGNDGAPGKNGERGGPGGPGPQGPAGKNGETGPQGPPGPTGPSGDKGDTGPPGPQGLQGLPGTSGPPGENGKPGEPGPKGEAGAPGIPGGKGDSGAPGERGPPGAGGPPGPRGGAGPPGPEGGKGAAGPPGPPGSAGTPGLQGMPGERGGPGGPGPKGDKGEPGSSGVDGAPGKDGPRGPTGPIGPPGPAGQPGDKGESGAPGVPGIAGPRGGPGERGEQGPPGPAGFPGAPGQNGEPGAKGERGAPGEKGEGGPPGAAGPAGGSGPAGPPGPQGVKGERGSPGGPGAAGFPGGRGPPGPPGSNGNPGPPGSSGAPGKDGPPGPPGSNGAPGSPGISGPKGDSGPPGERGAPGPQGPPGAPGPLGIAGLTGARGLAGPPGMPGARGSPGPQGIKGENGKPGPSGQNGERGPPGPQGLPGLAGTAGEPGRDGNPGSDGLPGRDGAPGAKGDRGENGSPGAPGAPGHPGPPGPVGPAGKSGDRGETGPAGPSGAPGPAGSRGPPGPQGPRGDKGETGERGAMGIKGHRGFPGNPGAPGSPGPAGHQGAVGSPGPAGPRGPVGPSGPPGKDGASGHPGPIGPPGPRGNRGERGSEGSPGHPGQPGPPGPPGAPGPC
Description: as §2, §4, §5, §3

[5] = In vivo drug sustained-release ability of thyroglobulin formulation (Example 11); details: thyroglobulin (669 kDa) with atelocollagen 3% [w/v], sucrose 0.25 M; 100 μL subcutaneous in mice; afterwards low sustained-release rate
Text: The sustained-release amount of thyroglobulin was quantitatively measured by HPLC in a time-dependent manner.
3.5% [w/v] atelocollagen Lot. I-175, Kasai Lac, 2.5 M sucrose, and a 100-mg protein solution were mixed at a blending ratio of 8:1:1. First, syringes filled with atelocollagen and sucrose were connected in series on ice, followed by thorough mixing by reciprocation 50 times. The mixed liquid was mixed with the protein solution by syringe reciprocation 50 times immediately before subcutaneous injection into mice.
The mice were purchased from Japan SLC, Inc. ICR strain female mice were purchased at 7-week-old 1 week before use and used at 8-week old. The collagen mixed liquid was injected into three sites in an amount of 100 μL per site (n=3). Each of samples after 0, minutes, 30 minutes, 45 minutes, 1 hour, 3 hours, 6 hours, and 12 hours was extirpated and heated to 80° C. in an Eppendorf tube so as to denature the collagen into a solution form. Each of the samples was analyzed through use of Agilent HPLC and an SEC-4 gel filtration column to quantify the concentration of the protein in the gel. In the HPLC, thyroglobulin is eluted at 5.927 minutes.

T2 sequence (P02453 178-1191 limits assumed): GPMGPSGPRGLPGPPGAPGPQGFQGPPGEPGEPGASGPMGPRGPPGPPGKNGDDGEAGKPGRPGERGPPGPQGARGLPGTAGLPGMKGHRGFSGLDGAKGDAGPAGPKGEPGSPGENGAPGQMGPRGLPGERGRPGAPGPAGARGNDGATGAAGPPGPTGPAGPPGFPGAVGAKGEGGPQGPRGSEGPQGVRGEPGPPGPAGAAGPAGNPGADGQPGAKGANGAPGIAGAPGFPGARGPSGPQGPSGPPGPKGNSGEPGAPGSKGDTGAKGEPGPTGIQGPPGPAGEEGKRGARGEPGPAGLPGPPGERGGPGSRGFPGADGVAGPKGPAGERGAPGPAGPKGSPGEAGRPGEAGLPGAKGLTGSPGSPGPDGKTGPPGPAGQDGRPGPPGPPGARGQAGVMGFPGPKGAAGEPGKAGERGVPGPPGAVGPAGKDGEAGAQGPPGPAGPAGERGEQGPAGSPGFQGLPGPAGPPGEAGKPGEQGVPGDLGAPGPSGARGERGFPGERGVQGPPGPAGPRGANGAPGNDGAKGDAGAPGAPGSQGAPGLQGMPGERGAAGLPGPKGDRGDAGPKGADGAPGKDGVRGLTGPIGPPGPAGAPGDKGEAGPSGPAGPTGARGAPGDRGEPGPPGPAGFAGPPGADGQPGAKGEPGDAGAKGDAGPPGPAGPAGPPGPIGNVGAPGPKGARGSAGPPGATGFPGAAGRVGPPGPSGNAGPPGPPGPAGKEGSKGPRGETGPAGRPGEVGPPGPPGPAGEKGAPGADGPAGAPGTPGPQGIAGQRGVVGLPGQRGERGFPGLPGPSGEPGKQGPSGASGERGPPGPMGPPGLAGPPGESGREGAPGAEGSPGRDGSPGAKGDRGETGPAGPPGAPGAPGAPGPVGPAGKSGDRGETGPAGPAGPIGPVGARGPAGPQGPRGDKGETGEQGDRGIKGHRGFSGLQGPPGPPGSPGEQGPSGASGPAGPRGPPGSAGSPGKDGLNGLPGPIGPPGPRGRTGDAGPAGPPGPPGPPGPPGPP
T2 sequence (P02465 80-1117 limits assumed): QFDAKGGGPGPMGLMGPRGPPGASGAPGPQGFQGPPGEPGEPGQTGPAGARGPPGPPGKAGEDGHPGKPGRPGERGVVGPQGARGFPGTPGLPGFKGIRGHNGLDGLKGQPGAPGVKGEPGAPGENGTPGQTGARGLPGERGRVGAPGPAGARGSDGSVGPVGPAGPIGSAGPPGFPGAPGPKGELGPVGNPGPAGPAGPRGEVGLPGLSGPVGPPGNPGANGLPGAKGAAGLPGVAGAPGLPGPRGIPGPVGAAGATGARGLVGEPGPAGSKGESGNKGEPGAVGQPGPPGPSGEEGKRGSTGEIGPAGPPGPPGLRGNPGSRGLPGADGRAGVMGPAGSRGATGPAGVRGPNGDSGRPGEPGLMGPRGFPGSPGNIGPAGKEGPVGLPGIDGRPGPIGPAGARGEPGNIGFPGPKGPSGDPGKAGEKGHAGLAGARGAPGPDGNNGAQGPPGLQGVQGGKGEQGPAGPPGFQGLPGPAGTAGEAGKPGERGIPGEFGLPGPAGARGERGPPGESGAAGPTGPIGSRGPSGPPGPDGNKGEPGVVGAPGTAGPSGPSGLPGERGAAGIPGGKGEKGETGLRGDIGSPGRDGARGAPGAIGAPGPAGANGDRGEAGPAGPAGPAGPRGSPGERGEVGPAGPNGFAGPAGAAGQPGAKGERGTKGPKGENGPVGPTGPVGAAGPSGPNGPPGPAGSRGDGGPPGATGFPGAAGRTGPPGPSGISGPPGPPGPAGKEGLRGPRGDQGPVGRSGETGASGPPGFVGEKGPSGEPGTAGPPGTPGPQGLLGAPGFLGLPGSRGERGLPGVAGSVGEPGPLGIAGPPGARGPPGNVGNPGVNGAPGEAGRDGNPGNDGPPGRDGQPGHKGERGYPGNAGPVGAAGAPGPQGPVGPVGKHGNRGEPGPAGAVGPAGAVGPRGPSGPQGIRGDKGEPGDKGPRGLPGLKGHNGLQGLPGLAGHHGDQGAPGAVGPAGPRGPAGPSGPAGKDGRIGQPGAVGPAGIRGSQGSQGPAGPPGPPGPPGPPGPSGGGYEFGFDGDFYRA
T1 sequence (P02453 178-1191 limits assumed): as the sequence (P02453 178-1191 limits assumed) above
T1 sequence (P02465 80-1117 limits assumed): as the sequence (P02465 80-1117 limits assumed) above
T4 sequence (P02459 201-1214 limits assumed): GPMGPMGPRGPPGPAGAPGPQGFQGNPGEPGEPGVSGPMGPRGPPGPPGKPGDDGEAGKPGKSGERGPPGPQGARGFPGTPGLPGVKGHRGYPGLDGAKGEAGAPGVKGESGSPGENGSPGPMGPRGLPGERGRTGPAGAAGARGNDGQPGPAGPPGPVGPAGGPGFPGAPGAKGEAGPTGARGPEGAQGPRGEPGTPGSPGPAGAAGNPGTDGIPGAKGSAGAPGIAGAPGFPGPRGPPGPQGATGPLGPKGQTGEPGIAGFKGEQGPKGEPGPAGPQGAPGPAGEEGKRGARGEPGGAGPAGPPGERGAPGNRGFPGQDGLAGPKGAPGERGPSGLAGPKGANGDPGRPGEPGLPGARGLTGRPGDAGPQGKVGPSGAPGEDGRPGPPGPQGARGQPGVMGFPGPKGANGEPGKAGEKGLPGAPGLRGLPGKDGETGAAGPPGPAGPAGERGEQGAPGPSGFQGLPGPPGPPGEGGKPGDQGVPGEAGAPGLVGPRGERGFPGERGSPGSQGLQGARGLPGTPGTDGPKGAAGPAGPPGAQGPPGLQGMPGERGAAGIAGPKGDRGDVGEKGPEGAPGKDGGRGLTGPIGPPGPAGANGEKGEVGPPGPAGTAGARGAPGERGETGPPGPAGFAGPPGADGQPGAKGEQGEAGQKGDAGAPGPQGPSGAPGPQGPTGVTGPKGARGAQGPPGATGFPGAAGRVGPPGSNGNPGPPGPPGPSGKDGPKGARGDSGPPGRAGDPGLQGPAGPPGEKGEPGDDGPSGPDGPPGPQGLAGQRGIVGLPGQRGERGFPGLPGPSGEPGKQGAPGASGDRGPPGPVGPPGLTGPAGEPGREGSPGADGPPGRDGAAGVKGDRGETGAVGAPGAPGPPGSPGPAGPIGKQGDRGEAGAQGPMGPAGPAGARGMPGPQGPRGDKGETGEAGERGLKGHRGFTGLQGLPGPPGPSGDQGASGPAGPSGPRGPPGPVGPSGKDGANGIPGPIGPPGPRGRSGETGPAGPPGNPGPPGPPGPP
T3 sequence (P02465 80-1117): as the sequence (P02465 80-1117 limits assumed) above
T3 sequence (P02453 162-1217): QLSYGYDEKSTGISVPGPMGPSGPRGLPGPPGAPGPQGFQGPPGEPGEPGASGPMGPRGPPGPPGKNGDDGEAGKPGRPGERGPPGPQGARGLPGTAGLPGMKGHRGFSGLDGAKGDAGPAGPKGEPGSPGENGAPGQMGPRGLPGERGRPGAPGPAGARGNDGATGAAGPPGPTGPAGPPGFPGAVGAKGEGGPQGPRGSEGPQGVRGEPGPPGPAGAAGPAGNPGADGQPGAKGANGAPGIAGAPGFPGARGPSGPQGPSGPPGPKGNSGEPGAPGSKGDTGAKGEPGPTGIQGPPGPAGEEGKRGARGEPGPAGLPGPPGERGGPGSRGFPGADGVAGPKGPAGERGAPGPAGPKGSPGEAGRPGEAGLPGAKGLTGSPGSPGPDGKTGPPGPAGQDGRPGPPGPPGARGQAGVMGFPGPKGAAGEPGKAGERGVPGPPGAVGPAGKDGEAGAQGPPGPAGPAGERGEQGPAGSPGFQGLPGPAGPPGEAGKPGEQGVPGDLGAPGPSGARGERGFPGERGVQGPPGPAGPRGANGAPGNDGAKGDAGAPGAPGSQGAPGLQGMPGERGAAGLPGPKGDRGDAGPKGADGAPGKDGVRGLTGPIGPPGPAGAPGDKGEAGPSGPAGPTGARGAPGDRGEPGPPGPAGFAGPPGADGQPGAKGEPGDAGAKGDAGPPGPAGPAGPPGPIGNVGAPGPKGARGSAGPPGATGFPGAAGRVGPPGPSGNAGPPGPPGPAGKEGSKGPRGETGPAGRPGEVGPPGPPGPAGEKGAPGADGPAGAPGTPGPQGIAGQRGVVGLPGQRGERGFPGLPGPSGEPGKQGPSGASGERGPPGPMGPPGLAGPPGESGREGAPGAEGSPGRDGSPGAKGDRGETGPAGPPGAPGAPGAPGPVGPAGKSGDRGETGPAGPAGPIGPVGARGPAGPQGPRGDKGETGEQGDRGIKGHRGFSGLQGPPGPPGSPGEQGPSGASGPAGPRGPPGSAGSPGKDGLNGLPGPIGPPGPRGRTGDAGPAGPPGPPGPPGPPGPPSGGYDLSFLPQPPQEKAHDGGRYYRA

Molecule: OC[C@H]1O[C@H](O[C@H]2[C@H](O)[C@@H](O)C(O)O[C@@H]2CO)[C@H](O)[C@@H](O)[C@@H]1O (mixture of isomers) [maltose]
suppression of gelation of collagen (fibrillogenesis time) [1]: suppressed in a concentration-dependent manner

fibrillogenesis suppressing effect (fibrillogenesis time) [2]: comparable to that of the monosaccharide
Molecule: OC[C@H]1O[C@H](O[C@H]2[C@H](O)[C@@H](O)[C@@H](O[C@H]3[C@H](O)[C@@H](O)[C@@H](O[C@H]4[C@H](O)[C@@H](O)C(O)O[C@@H]4CO)O[C@@H]3CO)O[C@@H]2CO)[C@H](O)[C@@H](O)[C@@H]1O (some centres unmarked) [Maltotetraose, maltotetraose]

Molecule: O=C(CO)[C@@H](O)[C@H](O)[C@H](O)CO [fructose]
suppression of gelation of collagen (fibrillogenesis time) [1]: suppressed in a concentration-dependent manner

Molecule: O=C[C@H](O)[C@@H](O)[C@H](O)[C@H](O)C(=O)O [glucuronic acid]
gelation suppressing effect [3]: low gelation suppressing effect as compared to glucose

Molecule: OC[C@H]1O[C@H](OC[C@H]2O[C@H](O[C@]3(CO)O[C@H](CO)[C@@H](O)[C@@H]3O)[C@H](O)[C@@H](O)[C@@H]2O)[C@H](O)[C@@H](O)[C@H]1O [raffinose]
suppression of gelation of collagen (fibrillogenesis time) [1]: delayed as compared to the case of adding no sugar

suppression of gelation of collagen (fibrillogenesis time) [1]: hardly confirmed
fibrillogenesis time of the collagen solution (KS collagen solution): delayed
Molecule: OC[C@H]1O[C@H](OC[C@H]2O[C@H](OC[C@H]3O[C@H](O[C@]4(CO)O[C@H](CO)[C@@H](O)[C@@H]4O)[C@H](O)[C@@H](O)[C@@H]3O)[C@H](O)[C@@H](O)[C@H]2O)[C@H](O)[C@@H](O)[C@H]1O [stachyose]

influence on gelation of collagen solution (Type I atelocollagen): suppressed gelation
influence on gelation of collagen solution (Shark atelocollagen): suppressed gelation
influence on gelation of collagen solution (Type I native collagen): suppressed gelation
influence on gelation of collagen solution (Type II atelocollagen): suppressed gelation
influence on gelation of collagen solution (Type III atelocollagen): suppressed gelation
gelation suppressing effect [3]: high gelation suppressing effect
Molecule: OC[C@H]1O[C@@](CO)(O[C@H]2O[C@H](CO)[C@@H](O)[C@H](O)[C@H]2O)[C@@H](O)[C@@H]1O [sucrose]
influence on gelation of collagen solution [4]: delayed in a sucrose concentration-dependent manner
suppression of gelation of collagen (fibrillogenesis time) [1]: suppressed in a concentration-dependent manner

fibrillogenesis suppressing effect (fibrillogenesis time) [2]: substantially no delay
Molecule: maltopentaose

Molecule: thyrogloblin: high molecular weight protein (669 kDa) used as drug in sucrose/atelocollagen formulation
period of fast release after the injection [5]: ≤ 3 h
